Reference: PubChem BioAssay AID2060493 (Molecular Pharmacology Branch, DTP, NCI, 2025)

System: 616215-338-R-J1-PDC tumor spheroids, viability
Assay: Anticancer human tumor 616215-338-R-J1-PDC patient-derived colon adenocarcinoma cell line growth inhibition [GQUAD]
Conditions: spheroids with HUVEC and MSC; for IC50: curve of first compound; for viability, T/C: stronger effect = lower value
Procedure, shortened: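 Viability of tumor cells grown as complex spheroids with endothelial and stromal cells, exposed to drug combinations. Top concentration at or near clinical Cmax (else 10 microM), diluted in half-log increments.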

[1] = second compound 0.0316 µM, first compound 0.0316 µM
[2] = second compound 0.0316 µM, first compound 0.1 µM
[3] = second compound 0.0316 µM, first compound 0.316 µM
[4] = second compound 0.0316 µM, first compound 1 µM
[5] = second compound 0.0316 µM, first compound 3.16 µM
[6] = second compound 0.0316 µM, first compound 10 µM
[7] = second compound 0.1 µM, first compound 0.0316 µM
[8] = second compound 0.1 µM, first compound 0.1 µM
[9] = second compound 0.1 µM, first compound 0.316 µM
[10] = second compound 0.1 µM, first compound 1 µM
[11] = second compound 0.1 µM, first compound 3.16 µM
[12] = second compound 0.1 µM, first compound 10 µM
[13] = second compound 0.316 µM, first compound 0.0316 µM
[14] = second compound 0.316 µM, first compound 0.1 µM
[15] = second compound 0.316 µM, first compound 0.316 µM
[16] = second compound 0.316 µM, first compound 1 µM
[17] = second compound 0.316 µM, first compound 3.16 µM
[18] = second compound 0.316 µM, first compound 10 µM
[19] = second compound 1 µM, first compound 0.0316 µM
[20] = second compound 1 µM, first compound 0.1 µM
[21] = second compound 1 µM, first compound 0.316 µM
[22] = second compound 1 µM, first compound 1 µM
[23] = second compound 1 µM, first compound 3.16 µM
[24] = second compound 1 µM, first compound 10 µM
[25] = second compound 3.16 µM, first compound 0.0316 µM
[26] = second compound 3.16 µM, first compound 0.1 µM
[27] = second compound 3.16 µM, first compound 0.316 µM
[28] = second compound 3.16 µM, first compound 1 µM
[29] = second compound 3.16 µM, first compound 3.16 µM
[30] = second compound 3.16 µM, first compound 10 µM
[31] = second compound 10 µM, first compound 0.0316 µM
[32] = second compound 10 µM, first compound 0.1 µM
[33] = second compound 10 µM, first compound 0.316 µM
[34] = second compound 10 µM, first compound 1 µM
[35] = second compound 10 µM, first compound 3.16 µM
[36] = second compound 10 µM, first compound 10 µM
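Note: spheroids exposed to agents for 7 days before readout.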
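Throughout, for viability, T/C: percent viability relative to DMSO vehicle control wells taken as 100%.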

## O=c1[nH]cc(F)c(=O)[nH]1 + Cc1cnc(CNC(=O)c2c(=O)c3ccc(N4CCCN(C)CC4)nc3n3c2sc2ccccc23)cn1
Second compound 0.0316 µM
  IC50: 786 nM
Second compound 0.1 µM
  IC50: 559 nM
Second compound 0.316 µM
  IC50: < 31.6 nM
Second compound 1 µM
  IC50: < 31.6 nM
Second compound 3.16 µM
  IC50: < 31.6 nM
Second compound 10 µM
  IC50: < 31.6 nM
[1]
  viability, T/C: 98.8%
[2]
  viability, T/C: 98.7%
[3]
  viability, T/C: 62.9%
[4]
  viability, T/C: 51.5%
[5]
  viability, T/C: 40.4%
[6]
  viability, T/C: 35.8%
[7]
  viability, T/C: 66.8%
[8]
  viability, T/C: 62.4%
[9]
  viability, T/C: 54.1%
[10]
  viability, T/C: 40.4%
[11]
  viability, T/C: 46.5%
[12]
  viability, T/C: 31.5%
[13]
  viability, T/C: 40.9%
[14]
  viability, T/C: 48.7%
[15]
  viability, T/C: 54.6%
[16]
  viability, T/C: 36.1%
[17]
  viability, T/C: 43%
[18]
  viability, T/C: 39.2%
[19]
  viability, T/C: 32.4%
[20]
  viability, T/C: 39.2%
[21]
  viability, T/C: 42.6%
[22]
  viability, T/C: 33.4%
[23]
  viability, T/C: 36.6%
[24]
  viability, T/C: 22.4%
[25]
  viability, T/C: 31.7%
[26]
  viability, T/C: 25.2%
[27]
  viability, T/C: 22.1%
[28]
  viability, T/C: 30.3%
[29]
  viability, T/C: 34.1%
[30]
  viability, T/C: 28.7%
[31]
  viability, T/C: 25.7%
[32]
  viability, T/C: 28.7%
[33]
  viability, T/C: 25.6%
[34]
  viability, T/C: 30.3%
[35]
  viability, T/C: 25.6%
[36]
  viability, T/C: 30.4%

## CC(C)(O)C1CCC(Nc2ccc3ncc(-c4cccc(C(F)(F)F)c4)n3n2)CC1 (centres undefined) + CN(C)c1ccc(Nc2c3ccc(NC(=O)CCN4CCCC4)cc3nc3cc(NC(=O)CCN4CCCC4)ccc23)cc1
Second compound 0.0316 µM
  IC50: 634 nM
Second compound 0.1 µM
  IC50: 726 nM
Second compound 0.316 µM
  IC50: 640 nM
Second compound 1 µM
  IC50: 711 nM
Second compound 3.16 µM
  IC50: 585 nM
Second compound 10 µM
  IC50: 447 nM
[1]
  viability, T/C: 111%
[2]
  viability, T/C: 106%
[3]
  viability, T/C: 101%
[4]
  viability, T/C: 17%
[5]
  viability, T/C: 0.97%
[6]
  viability, T/C: 1.74%
[7]
  viability, T/C: 96.3%
[8]
  viability, T/C: 104%
[9]
  viability, T/C: 94.7%
[10]
  viability, T/C: 32.7%
[11]
  viability, T/C: 1.16%
[12]
  viability, T/C: 1.76%
[13]
  viability, T/C: 106%
[14]
  viability, T/C: 101%
[15]
  viability, T/C: 91.2%
[16]
  viability, T/C: 24.1%
[17]
  viability, T/C: 1.32%
[18]
  viability, T/C: 2.9%
[19]
  viability, T/C: 93.6%
[20]
  viability, T/C: 102%
[21]
  viability, T/C: 103%
[22]
  viability, T/C: 29.2%
[23]
  viability, T/C: 2.03%
[24]
  viability, T/C: 3.51%
[25]
  viability, T/C: 93.1%
[26]
  viability, T/C: 92.8%
[27]
  viability, T/C: 86.3%
[28]
  viability, T/C: 18.4%
[29]
  viability, T/C: 3.83%
[30]
  viability, T/C: 1.76%
[31]
  viability, T/C: 89.9%
[32]
  viability, T/C: 97.8%
[33]
  viability, T/C: 63.8%
[34]
  viability, T/C: 15.6%
[35]
  viability, T/C: 0.42%
[36]
  viability, T/C: 0.5%
